IC50 and melting point data for 19 molecules are collected here from patent US20230174538A1, “Tricyclic heterocycles” (Merck Patent GmbH, priority 2020, published 2023).

A value given as a limit tells only on which side of the number the result lay.

In one data set the test system is SW620 Yap KO cells. The experiment in a line: Viability assay in SW620 Yap KO (Yap independent) cells, CyQUANT. The settings on record: Homo sapiens, SW-620. It is filed as cell-based. As for the experimental part:
(§1) Viability Assay in NCI-H226 (Yap-Dependent) and SW620 Yap KO (Yap Independent) Cells
(§2) The ability of YAP-TEAD inhibitors to inhibit tumor cell growth was evaluated using two different cell lines: NCI-H226, which is a YAP dependent cell line, and SW620 cells, where YAP and TAZ were knocked out using CRISPR to generate a YAP independent cell line.
(§3) For the assay, cells were treated in duplicates with the test compounds in a 10-point dose, 1:3 dilution steps, with the top concentration starting at 30 μM (final concentration in assay). After a 96 hour incubation at 37° C., 95% rH, and 5% CO2, a cell-permeant DNA-binding dye that stains only healthy cells (CyQUANT®, Promega) was added to the cells, allowing the quantification of cell viability.
(§4) Cell Media: The NCI-H226 cells were cultured in the following media: RPMI 1640, +10% FBS, +1× GlutaMAX, +10 mM HEPES, +0.5% Pen/Strep. The SW620-KO cells were cultured in the following media: DMEM/F-12, +10% FBS, +1× GlutaMAX, +10 mM HEPES, +0.5% Pen/Strep.
(§5) Reagents: The reagents used are listed below:
(§6) Cell culture: The cells were examined using an inverted microscope to check for health, cell density, etc. To dissociate adherent cells, the monolayer of cells was washed once with pre-warmed PBS. After removing the PBS, 3 ml pre-warmed Accutase was added to a F75 flask, dispersed evenly and the flask was allowed to sit in incubator for ˜4-5 minutes.
(§7) When a single cell suspension was obtained, 7 ml of prewarmed growth media was added and resuspended with the cells. The cell suspension was transferred to a sterile 15 ml conical centrifuge tube, and spun for 5 min at 300×g, RT. The supernatant was discarded and the pellet was resuspended in 10 ml of pre-warmed growth media.
(§8) The total cell count was determined, and 20 μl of the desired cell number was added to each well of a 384 well plate using a Multidrop Combi. The plates were then incubated for 24 hours at 37° C., 95% rH, and 5% CO2.
(§9) Compound treatment: 24 hours after seeding, the cells were treated with compounds.
(§10) A 1:333 dilution of compounds, diluted in DMSO, was made to get a final concentration of 0.3% DMSO per well. To transfer the compounds to the assay plate, 120 nl was shot from Labcyte low dead volume plates to the cell plates containing 20 μl media/well with the ECHO 555 liquid handling system.
(§11) After treatment, the cells were fed with 20 μl fresh pre-warmed assay media using a Multidrop combi.
(§12) The assay plates were then incubated for 96 h at 37° C., 95% rH, and 5% CO2.
(§13) 96 h after treatment 30 μl of CyQuant® reagent was added to the assay plates using a Multidrop combi in the dark. The plates were then incubated for 1 hour at 37° C., 95% rH and 5% CO2. Thereafter, the assay plates were removed from the incubator and allowed to equilibrate to RT for 30 min in the dark without lid. Finally, they were measured using an EnVision microplate reader with a FITC bottom read program.

The subject of another data set is NCI-H226 cells. The experiment in a line: Viability assay in NCI-H226 (Yap-dependent) cells, CyQUANT. It is filed as cell-based. Particulars: Homo sapiens. As for the experimental part: as §1, §2, §3, §4, §5, §6, §7, §8, §9, §10, §11, §12, §13
For another data set, the system named is YAP-TEAD interaction. The experiment in a line: SK-HEP-1 reporter assay (8xTEAD responsive elements driving NanoLuc luciferase). It is filed as cell-based. The settings on record: Homo sapiens, SK-HEP1, SK-HEP-1 reporter assay. The essentials:
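SK-HEP-1 cells stably carrying an 8×TEAD-element NanoLuc reporter were treated in duplicate with 10-point dilutions from a top final 30 μM (0.3% DMSO). After 24 h at 37 °C, luciferase activity was read by luminescence with NanoGlo lysis/substrate reagent, and IC50 values were derived.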

For the molecule `C=CC(=O)Nc1ccc2c(c1)c1cn(C)nc1n2-c1ccc(C(F)(F)F)cc1` [Example 20, N-[2-methyl-8-[4-(trifluoromethyl)phenyl]pyrazolo[3,4-b]indol-5-yl]prop-2-enamide], the melting point was 223 to 224 °C. The IC50 in the data set on SW620 Yap KO cells fell in the range of 10000 to 30000 nM. The same molecule gave an IC50 in the data set with NCI-H226 cells of 100 to 1000 nM. Also, in the data set on YAP-TEAD interaction, the half-maximal inhibitory concentration (IC50) was in the range of 1 to 10 nM.

For `CCOc1ccc(-n2c3ccc(C(=O)O)cc3c3cn(C)nc32)cc1` [Example 15, 8-(4-Ethoxyphenyl)-2-methyl-2H,8H-pyrazolo[3,4-b]indole-5-carboxylic acid], the melting point lay within 179 to 181 °C. In addition, in the data set with SW620 Yap KO cells, the IC50 is more than 30000 nM. The IC50 in the data set on NCI-H226 cells was in the range of 100 to 1000 nM. In the data set with YAP-TEAD interaction, the IC50 lay in the range of 10 to 100 nM.

`COC(=O)c1ccc2c(c1)c1nn(C)cc1n2-c1ccc(C(F)(F)F)cc1` [Example 16, Methyl 2-methyl-4-[4-(trifluoromethyl)phenyl]pyrazolo[4,3-b]indole-7-carboxylate] gave a melting point of 111 to 112 °C. In the data set on SW620 Yap KO cells, the IC50 fell in the range of 1000 to 10000 nM. In the data set on NCI-H226 cells, this molecule had a half-inhibitory concentration (IC50) of 1 to 100 nM. In addition, the IC50 in the data set with YAP-TEAD interaction fell in the range of 10 to 100 nM.

In the case of `Cn1cc2c3cc(C(=O)NC4CC4)ccc3n(-c3ccc(C(F)(F)F)nc3)c2n1` [Example 27, N-cyclopropyl-2-methyl-8-[6-(trifluoromethyl)pyridin-3-yl]-2H,8H-pyrazolo[3,4-b]indole-5-carboxamide], the melting point came to 300 °C. The molecule also gave a 50% inhibitory concentration (IC50) in the data set on SW620 Yap KO cells of more than 30000 nM. In the data set with NCI-H226 cells, the IC50 was 1 to 100 nM. This molecule had an IC50 in the data set with YAP-TEAD interaction of 1 to 10 nM.

With `Cc1nc2c(s1)c1cc(C(=O)O)ccc1n2-c1ccc(C(F)(F)F)cc1` [Example 25, 2-methyl-4-[4-(trifluoromethyl)phenyl]-[1,3]thiazolo[4,5-b]indole-7-carboxylic acid], the melting point was in the range of 169 to 171 °C. The half-inhibitory concentration (IC50) in the data set on SW620 Yap KO cells was 1000 to 10000 nM. In addition, the IC50 in the data set on NCI-H226 cells was 100 to 1000 nM. Besides, in the data set on YAP-TEAD interaction, the IC50 is 10 to 100 nM.

In turn, `Cn1cc2c3cc(C(=O)NCc4ccncc4)ccc3n(-c3ccc(C(F)(F)F)cc3)c2n1` [Example 28, 2-methyl-N—[(pyridin-4-yl)methyl]-8-[4-(trifluoromethyl)phenyl]-2H, 8H-pyrazolo[3,4-b]indole-5-carboxamide] yielded a melting point of 181 to 185 °C. The IC50 in the data set on YAP-TEAD interaction is more than 10000 nM.

Molecule `Cn1cc2c3cc(CNC(=O)CCl)ccc3n(-c3ccc(C(F)(F)F)cc3)c2n1` [Example 24, 2-chloro-N—([2-methyl-8-[4-(trifluoromethyl)phenyl]pyrazolo[3,4-b]indol-5-yl]methyl)acetamide] showed a melting point of 221 to 222 °C. In addition, in the data set on SW620 Yap KO cells, the IC50 lay within 1000 to 10000 nM. For the same molecule, the IC50 in the data set with NCI-H226 cells was 100 to 1000 nM. Besides, the IC50 in the data set on YAP-TEAD interaction lay in the range of 100 to 10000 nM.

With `C=CC(=O)NCc1ccc2c(c1)c1cn(C)nc1n2-c1ccc(C(F)(F)F)cc1` [Example 21, N—([2-methyl-8-[4-(trifluoromethyl)phenyl]pyrazolo [3,4-b]indol-5-yl]methyl)prop-2-enamide], the melting point was 185 to 187 °C. Besides, the IC50 in the data set on SW620 Yap KO cells is 10000 to 30000 nM. In the data set on NCI-H226 cells, this molecule registered an IC50 of 1000 to 10000 nM. For the same molecule, in the data set with YAP-TEAD interaction, the IC50 was in the range of 1 to 10 nM.

The molecule `Cn1cc2c3cc(C(=O)O[C@@H]4O[C@H](C(=O)O)[C@@H](O)[C@H](O)[C@H]4O)ccc3n(-c3ccc(C(F)(F)F)cc3)c2n1` [Example 30, (2S,3S,4S,5R,6S)-3,4,5-trihydroxy-6-{2-methyl-8-[4-(trifluoromethyl)phenyl]-2H,8H-pyrazolo[3,4-b]indole-5-carbonyloxy}oxane-2-carboxylic acid] yielded a melting point of 110 to 111 °C. This molecule also had an IC50 with SW620 Yap KO cells of more than 30000 nM. Also, the concentration for half-maximal inhibition (IC50) in the data set on NCI-H226 cells is 1000 to 10000 nM. In the data set with YAP-TEAD interaction, this molecule gave an IC50 of 100 to 10000 nM.

With `Cn1cc2c3cc(C(=O)O)ccc3n(-c3cccc(C(F)(F)F)c3)c2n1` [Example 6, 2-Methyl-8-[3-(trifluoromethyl)phenyl]-2H,8H-pyrazolo[3,4-b]indole-5-carboxylic acid], the concentration for half-maximal inhibition (IC50) is more than 30000 nM with SW620 Yap KO cells, 100 to 1000 nM in the data set with NCI-H226 cells and 10 to 100 nM with YAP-TEAD interaction.

For the molecule `CN(C)S(=N)(=O)c1ccc2c(c1)c1nn(C)cc1n2-c1ccc(C(F)(F)F)cc1` (centres unmarked) [Example 36, N,N,2-Trimethyl-4-[4-(trifluoromethyl)phenyl]-2H,4H-pyrazolo[4,3-b]indole-7-sulfonoimidamide], the IC50 was more than 30000 nM in the data set on SW620 Yap KO cells, 1 to 100 nM in the data set on NCI-H226 cells and 1 to 10 nM with YAP-TEAD interaction.

As to `Cn1cc2c3cc(C(=O)NCc4n[nH]cc4C4CC4)ccc3n(-c3ccc(C(F)(F)F)cc3)c2n1` [Example B22, N-[(4-cyclopropyl-1H-pyrazol-3-yl)methyl]-2-methyl-8-[4-(trifluoromethyl)phenyl]-2H,8H-pyrazolo[3,4-b]indole-5-carboxamide], the IC50 with SW620 Yap KO cells was more than 30000 nM; in the data set on NCI-H226 cells it was 1 to 100 nM; in the data set on YAP-TEAD interaction, 10 to 100 nM.

On to `Cn1cc2c(n1)c1cc(C#N)ccc1n2-c1ccc(C(F)(F)F)cc1` [Example 19, 2-methyl-4-[4-(trifluoromethyl)phenyl]pyrazolo [4,3-b]indole-7-carbonitrile], for which the melting point was 208 to 210 °C. The molecule also registered an IC50 with SW620 Yap KO cells of more than 30000 nM. In the data set with NCI-H226 cells, this molecule gave an IC50 of more than 10000 nM. This molecule yielded a 50% inhibitory concentration (IC50) in the data set with YAP-TEAD interaction of more than 10000 nM.

Turning to `COc1nc(C)cc(CNC(=O)c2ccc3c(c2)c2cn(C)nc2n3-c2ccc(C(F)(F)F)cc2)n1` [B126^], the IC50 is more than 30000 nM with SW620 Yap KO cells, 1 to 100 nM in the data set with NCI-H226 cells and 10 to 100 nM in the data set with YAP-TEAD interaction.

Regarding `COCC(NC(=O)c1ccc2c(c1)c1cn(C)nc1n2-c1ccc(C(F)(F)F)cc1)c1cnn(C)c1` (centres unmarked) [Example B68, N-[2-methoxy-1-(1-methyl-1H-pyrazol-4-yl)ethyl]-2-methyl-8-[4-(trifluoromethyl)phenyl]-2H,8H-pyrazolo[3,4-b]indole-5-carboxamide], the IC50 in the data set with SW620 Yap KO cells was more than 30000 nM; with NCI-H226 cells it was 100 to 1000 nM; with YAP-TEAD interaction, 10 to 100 nM.

On to `Cn1cc2c3cc(C(=O)O)ccc3n(-c3ccc(OC(F)(F)F)cc3)c2n1` [Example 18, 2-methyl-8-[4-(trifluoromethoxy)phenyl]-2H,8H-pyrazolo[3,4-b]indole-5-carboxylic acid], for which the figures for the IC50 in the data set on SW620 Yap KO cells, in the data set on NCI-H226 cells and in the data set with YAP-TEAD interaction were more than 30000 nM, 100 to 1000 nM and 1 to 10 nM, respectively.

For the molecule `Cn1cc2c3cc(C(=O)O)ccc3n(-c3ccc(F)cc3)c2n1` [Example 10, 8-(4-fluorophenyl)-2-methyl-2H,8H-pyrazolo[3,4-b]indole-5-carboxylic acid], the concentration for half-maximal inhibition (IC50) was more than 30000 nM with SW620 Yap KO cells, 100 to 1000 nM in the data set on NCI-H226 cells and 10 to 100 nM in the data set on YAP-TEAD interaction.

As to `Cn1cc2c(n1)c1cc(S(C)(=N)=O)ccc1n2-c1ccc(C(F)(F)F)cc1` (centres unmarked) [Example 35, Imino(methyl){2-methyl-4-[4-(trifluoromethyl)phenyl]-2H,4H-pyrazolo[4,3-b]indol-7-yl}-lambda6-sulfanone], the IC50 is more than 30000 nM in the data set with SW620 Yap KO cells, 100 to 1000 nM with NCI-H226 cells and 1 to 10 nM in the data set on YAP-TEAD interaction.

As to `COc1ccc(-n2c3ccc(C(=O)O)cc3c3cn(C)nc32)cc1` [Example 14, 8-(4-methoxyphenyl)-2-methyl-2H,8H-pyrazolo[3,4-b]indole-5-carboxylic acid], the half-maximal inhibitory concentration (IC50) was more than 30000 nM in the data set with SW620 Yap KO cells, 100 to 1000 nM with NCI-H226 cells and 10 to 100 nM in the data set with YAP-TEAD interaction.
